In US20250122191A1, “COMPOUNDS AS BCL-2 INHIBITORS” (Fochon Biosciences, Ltd, priority 2021, published 2025) one finds IC50 data, which are given here for ten molecules.

What all share (type): cell-based
One assay has as its system Toledo cells. Kind of assay: Cell proliferation assay (MTS), Toledo cells. Particulars: Homo sapiens, 72 h. In a few lines: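 Toledo cells (RPMI-1640, 10% FBS) seeded at 30000 cells/well, rested 4 h, then exposed 72 h at 37 °C, 5% CO2 to compound at nine final concentrations, 1.5–10000 nM. Viability by MTS (2 h), absorbance at 490 nm. IC50 from the concentration-response.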

A further assay has as its system RS4;11-BCL-2 G101V cells. Kind of assay: Cell proliferation assay (MTS), RS4;11-BCL-2 G101V engineered cells. Particulars: Homo sapiens, 120 h, read-out: RS4, 11 BCL2-G101V IC50. In a few lines: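 Cells were plated, allowed to settle 4 h (G101V, F104L) or 24 h (D103E, D103Y), and treated with serially diluted compound (10000 down to 1.5 nM). After 120 h or 72 h respectively at 37 °C, MTS was added for 2 h and absorbance at 490 nm gave IC50 values.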

Another assay relates to RS4;11-BCL-2 F104L cells. Kind of assay: Cell proliferation assay (MTS), RS4;11-BCL-2 F104L engineered cells. Particulars: Homo sapiens, 120 h, read-out: RS4, 11 BCL2-F104L IC50. The text has this: MTS testing kit was purchased from Promega (Madison, WI, USA). The RPMI-1640, Fetal bovine serum and Penicillin-Streptomycin were purchased from BI (Biological Industries, Beit Haemek, Israel). Puromycin was purchased from Beyotime (shanghai, China). Dimethyl sulfoxide (DMSO) was purchased from Sigma (St. Louis., MO, USA). RS4;11-BCL-2 G101V (Cobioer Lot. #: CBD2021063013P4), RS4;11-BCL-2 D103E (Cobioer Lot. #: CBD2021063013P4), RS4;11-BCL-2 D103Y (Cobioer Lot. #: CBD2022012101P4) and RS4;11-BCL-2 F104L (Cobioer Lot. #: CBD2021063014P4) cells were cultured in RPMI1640 supplemented with 1 ug/mL puromycin, 100 U/mL Penicillin-Streptomycin and 10% FBS.
To investigate whether a compound is able to inhibit the activity of BCL-2 mutation in cells, a mechanism-based assay using engineered cell lines stably overexpressing BCL-2 mutation (RS4;11-BCL-2 G101V, RS4;11-BCL-2 D103E, RS4;11-BCL-2 D103Y, and RS4;11-BCL-2 F104L) was developed. In this assay, the inhibition of BCL-2 mutation was reflected by the inhibition of cell proliferation of engineered RS4;11 cells. Cells were plated into 96-well plates at optimized cell density (RS4;11-BCL-2 G101V: 5000 cells/well; RS4;11-BCL-2 D103E: 7500 cells/well; RS4;11-BCL-2 D103Y: 7500 cells/well; RS4;11-BCL-2 F104L: 5000 cells/well). Plates were incubated at 37° C., with 5% CO2 for 4 h (RS4;11-BCL-2 G101V, RS4;11-BCL-2 F104L) and 24 h (RS4;11-BCL-2 D103E, RS4;11-BCL-2 D103Y), respectively. Compounds were serially diluted and added to the plates with the final concentrations of 10000, 3333.3, 1111.1, 370.4, 123.5, 41.2, 13.7, 4.6 and 1.5 nM. Plates were incubated at 37° C., with 5% CO2 for 120 h (RS4; 11-BCL-2 G101V, RS4; 11-BCL-2 F104L) and 72 h (RS4;11-BCL-2 D103E, RS4;11-BCL-2 D103Y), respectively. 20 μl MTS was added into each well and the plates were incubated at 37° C., with 5% CO2 exactly for 2 h. The absorbance was measured by a microplate reader at 490 nm. IC50 values were calculated using GraphPad Prism 8.0 software.

For `CCOc1nc2[nH]cc(F)c2cc1Oc1cc(N2CCC3(CC2)CC(N2CCN(Cc4ccc(C5CC5)c(OC)c4)C[C@H]2c2ccccc2C(C)C)C3)ccc1C(=O)NS(=O)(=O)c1cnc(NC[C@H]2CC[C@](C)(O)CC2)c([N+](=O)[O-])c1` [Example 6, 4-(2-((R)-4-(4-cyclopropyl-3-methoxybenzyl)-2-(2-isopropylphenyl)piperazin-1-yl)-7-azaspiro[3.5]nonan-7-yl)-2-((6-ethoxy-3-fluoro-1H-pyrrolo[2,3-b]pyridin-5-yl)oxy)-N-((6-((((1r,4r)-4-hydroxy-4-methylcyclohexyl)methyl)amino)-5-nitropyridin-3-yl)sulfonyl)benzamide], the IC50 with Toledo cells, in the assay on RS4;11-BCL-2 G101V cells and in the assay on RS4;11-BCL-2 F104L cells was 1 nM throughout.
As for `CCOc1nc2[nH]cc(F)c2cc1Oc1cc(N2CCC3(CC2)CC(N2CCN(Cc4ccc(OC)c5oc(C)cc45)C[C@H]2c2ccccc2C(C)C)C3)ccc1C(=O)NS(=O)(=O)c1cnc(NC[C@H]2CC[C@](C)(O)CC2)c([N+](=O)[O-])c1` [Example 14, 2-((6-ethoxy-3-fluoro-1H-pyrrolo[2,3-b]pyridin-5-yl)oxy)-N-((6-((((1r,4r)-4-hydroxy-4-methylcyclohexyl)methyl)amino)-5-nitropyridin-3-yl)sulfonyl)-4-(2-((R)-2-(2-isopropylphenyl)-4-((7-methoxy-2-methylbenzofuran-4-yl)methyl)piperazin-1-yl)-7-azaspiro[3.5]nonan-7-yl)benzamide], the half-maximal inhibitory concentration (IC50) with Toledo cells, in the assay with RS4;11-BCL-2 G101V cells and in the assay with RS4;11-BCL-2 F104L cells was 1 nM in each case.
In the case of `CCOc1cc(CN2CCN(C3CC4(CCN(c5ccc(C(=O)NS(=O)(=O)c6cnc(NC[C@H]7CC[C@](C)(O)CC7)c([N+](=O)[O-])c6)c(Oc6cc7c(F)c[nH]c7nc6OC)c5)CC4)C3)[C@H](c3ccccc3C(C)C)C2)ccn1` [Example 65, 4-(2-((R)-4-((2-ethoxypyridin-4-yl)methyl)-2-(2-isopropylphenyl)piperazin-1-yl)-7-azaspiro[3.5]nonan-7-yl)-2-((3-fluoro-6-methoxy-1H-pyrrolo[2,3-b]pyridin-5-yl)oxy)-N-((6-((((1r,4r)-4-hydroxy-4-methylcyclohexyl)methyl)amino)-5-nitropyridin-3-yl)sulfonyl)benzamide], the concentration for half-maximal inhibition (IC50) with RS4;11-BCL-2 G101V cells and with RS4;11-BCL-2 F104L cells was 1 nM in each case.
With `COc1ccc(CN2CCN(C3CC4(CCN(c5ccc(C(=O)NS(=O)(=O)c6cnc(NC[C@H]7CC[C@](C)(O)CC7)c([N+](=O)[O-])c6)c(Oc6cnc7[nH]ccc7c6)c5)CC4)C3)[C@H](c3ccccc3C(C)C)C2)c2cc(C)oc12` [Example 66, 2-((1H-pyrrolo[2,3-b]pyridin-5-yl)oxy)-N-((6-((((1r,4r)-4-hydroxy-4-methylcyclohexyl)methyl)amino)-5-nitropyridin-3-yl)sulfonyl)-4-(2-((R)-2-(2-isopropylphenyl)-4-((7-methoxy-2-methylbenzofuran-4-yl)methyl)piperazin-1-yl)-7-azaspiro[3.5]nonan-7-yl)benzamide], the IC50 in the assay on RS4;11-BCL-2 G101V cells and in the assay on RS4;11-BCL-2 F104L cells was 1 nM throughout.
Turning to `COc1nc2[nH]cc(F)c2cc1Oc1cc(N2CCC3(CC2)CC(N2CCN(Cc4ccnc(OC(F)F)c4)C[C@H]2c2ccccc2C(C)C)C3)ccc1C(=O)NS(=O)(=O)c1cnc(NC[C@H]2CC[C@](C)(O)CC2)c([N+](=O)[O-])c1` [Example 67, 4-(2-((R)-4-((2-(difluoromethoxy)pyridin-4-yl)methyl)-2-(2-isopropylphenyl)piperazin-1-yl)-7-azaspiro[3.5]nonan-7-yl)-2-((3-fluoro-6-methoxy-1H-pyrrolo[2,3-b]pyridin-5-yl)oxy)-N-((6-((((1r,4r)-4-hydroxy-4-methylcyclohexyl)methyl)amino)-5-nitropyridin-3-yl)sulfonyl)benzamide], the IC50 in the assay on RS4;11-BCL-2 G101V cells and in the assay with RS4;11-BCL-2 F104L cells was 1 nM each time.
As to `COc1nc2[nH]cc(F)c2cc1Oc1cc(N2CCC3(CC2)CC(N2CCC[C@H]2c2ccccc2C(C)C)C3)ccc1C(=O)NS(=O)(=O)c1cnc(NC[C@H]2CC[C@](C)(O)CC2)c([N+](=O)[O-])c1` [Example 89, 2-((3-fluoro-6-methoxy-1H-pyrrolo[2,3-b]pyridin-5-yl)oxy)-N-((6-((((1r,4r)-4-hydroxy-4-methylcyclohexyl)methyl)amino)-5-nitropyridin-3-yl)sulfonyl)-4-(2-((S)-2-(2-isopropylphenyl)pyrrolidin-1-yl)-7-azaspiro[3.5]nonan-7-yl)benzamide], the IC50 with RS4;11-BCL-2 G101V cells and in the assay on RS4;11-BCL-2 F104L cells was 1 nM in each case.
In the case of `COc1ccc(CN2CCN(C3CC4(CCN(c5ccc(C(=O)NS(=O)(=O)c6cnc(NC[C@H]7CC[C@](C)(O)CC7)c([N+](=O)[O-])c6)c(Oc6cc7c(F)c[nH]c7nc6OC)c5)CC4)C3)[C@H](c3ccccc3C(C)C)C2)cc1F` [Example 97, 4-(2-((R)-4-(3-fluoro-4-methoxybenzyl)-2-(2-isopropylphenyl)piperazin-1-yl)-7-azaspiro[3.5]nonan-7-yl)-2-((3-fluoro-6-methoxy-1H-pyrrolo[2,3-b]pyridin-5-yl)oxy)-N-((6-((((1r,4r)-4-hydroxy-4-methylcyclohexyl)methyl)amino)-5-nitropyridin-3-yl)sulfonyl)benzamide], the half-maximal inhibitory concentration (IC50) in the assay with Toledo cells and in the assay on RS4;11-BCL-2 F104L cells was 1 nM each time.
For the molecule `COc1cc(CN2CCN(C3CC4(CCN(c5ccc(C(=O)NS(=O)(=O)c6cnc(NC[C@H]7CC[C@](C)(O)CC7)c([N+](=O)[O-])c6)c(Oc6cc7c(F)c[nH]c7nc6OC)c5)CC4)C3)[C@H](c3ccccc3C(C)C)C2)cc2c1OCCC2` [Example 103, 2-((3-fluoro-6-methoxy-1H-pyrrolo[2,3-b]pyridin-5-yl)oxy)-N-((6-((((1r,4r)-4-hydroxy-4-methylcyclohexyl)methyl)amino)-5-nitropyridin-3-yl)sulfonyl)-4-(2-((R)-2-(2-isopropylphenyl)-4-((8-methoxychroman-6-yl)methyl)piperazin-1-yl)-7-azaspiro[3.5]nonan-7-yl)benzamide], the IC50 with Toledo cells and with RS4;11-BCL-2 F104L cells was 1 nM each time.
For the molecule `COc1nc2[nH]cc(F)c2cc1Oc1cc(N2CCC3(CC2)CC(N2CCN(Cc4ccc(S(C)(=N)=O)cc4)C[C@H]2c2ccccc2C(C)C)C3)ccc1C(=O)NS(=O)(=O)c1cnc(NC[C@H]2CC[C@](C)(O)CC2)c([N+](=O)[O-])c1` (stereo partly drawn) [Example 336, 2-((3-fluoro-6-methoxy-1H-pyrrolo[2,3-b]pyridin-5-yl)oxy)-N-((6-((((1r,4r)-4-hydroxy-4-methylcyclohexyl)methyl)amino)-5-nitropyridin-3-yl)sulfonyl)-4-(2-((2R)-2-(2-isopropylphenyl)-4-(4-(S-methylsulfonimidoyl)benzyl)piperazin-1-yl)-7-azaspiro[3.5]nonan-7-yl)benzamide], the concentration for half-maximal inhibition (IC50) with Toledo cells and in the assay with RS4;11-BCL-2 F104L cells was 1 nM each time.
With `COc1nc2[nH]cc(F)c2cc1Oc1cc(N2CCC3(CC2)CC(N2CCN(Cc4ccnc(Cl)c4)C[C@H]2c2ccccc2C(C)C)C3)ccc1C(=O)NS(=O)(=O)c1cnc(NC[C@H]2CC[C@](C)(O)CC2)c([N+](=O)[O-])c1` [Example 357, 4-(2-((R)-4-((2-chloropyridin-4-yl)methyl)-2-(2-isopropylphenyl)piperazin-1-yl)-7-azaspiro[3.5]nonan-7-yl)-2-((3-fluoro-6-methoxy-1H-pyrrolo[2,3-b]pyridin-5-yl)oxy)-N-((6-((((1r,4r)-4-hydroxy-4-methylcyclohexyl)methyl)amino)-5-nitropyridin-3-yl)sulfonyl)benzamide], the IC50 (in general, the midpoint of a concentration-inhibition curve) with Toledo cells was determined as 1 nM; with RS4;11-BCL-2 F104L cells, 3 nM.
